Data published in patent publication US5159077A, “Penam antibacterial compounds” (Hoffmann-La Roche Inc., priority 1989, dated 1992).
In brackets after ≈: the same amount, converted by molar mass. Structures can show the parent of a compound that is named as a salt. Where two headings read alike, the source gives them in different places.

Key:
[1] = tested on: Staphylococcus aureus ATCC 29213; assay: In vitro MIC, Broth Dilution Method; format: cell-based
Description: (§1) The diluted agents prepared in Mueller-Hinton broth were dispensed from a Dynatech MIC 2000 machine, in 100 microliter (μL) volumes into 96 well trays and used immediately or frozen at -10° to -70° C. until needed. Using a Dynatech inoculator and inoculum trays, 1.5 μL of a 10^-2 dilution of an overnight culture was added to each well of the tray. The tops of the trays were then sealed with tape, and the trays were incubated overnight at 37° C. and then examined with a viewer. The lowest concentration at which no growth was observed was considered to be the minimum inhibitory concentration (MIC).

[2] = tested on: Staphylococcus aureus Smith; assay: In vitro MIC, Broth Dilution Method; format: cell-based; settings: read-out: In Vitro MIC
Description: as §1

[3] = tested on: Pseudomonas aeruginosa Stone 130; assay: In vitro MIC, Broth Dilution Method; format: cell-based
Description: as §1

[4] = tested on: Streptococcus pneumoniae 6301; assay: In vitro MIC, Broth Dilution Method; format: cell-based
Description: as §1

[5] = tested on: Pseudomonas aeruginosa ATCC 27853; assay: In vitro MIC, Broth Dilution Method; format: cell-based; settings: ATCC27853; Broth Dilution Method; Pseudomonas aeruginosa ATCC 27853; read-out: In Vitro MIC
Description: as §1

Proteus mirabilis 90 = assay: In vitro MIC, Broth Dilution Method; format: cell-based
Description: as §1

[6] = tested on: Streptococcus faecalis ATCC 29212; assay: In vitro MIC, Broth Dilution Method; format: cell-based; settings: Enterococcus faecalis, ATCC29212; Broth Dilution Method; Streptococcus faecalis ATCC 29212; read-out: In Vitro MIC
Description: as §1

Escherichia coli 4 = assay: In vitro MIC, Broth Dilution Method; format: cell-based
Description: as §1

Klebsiella pneumoniae A = assay: In vitro MIC, Broth Dilution Method; format: cell-based; settings: read-out: In Vitro MIC
Description: as §1

Serratia marcescens SM [7] = assay: In vitro MIC, Broth Dilution Method; format: cell-based; settings: read-out: In Vitro MIC
Description: as §1

Escherichia coli TEM-1 = assay: In vitro MIC, Broth Dilution Method; format: cell-based; settings: TEM1, read-out: In Vitro MIC
Description: as §1

[8] = tested on: Enterobacter cloacae 5699; assay: In vitro MIC, Broth Dilution Method; format: cell-based
Description: as §1

[9] = tested on: Citrobacter freundii BS-16; assay: In vitro MIC, Broth Dilution Method; format: cell-based; settings: BS16; Broth Dilution Method; Citrobacter freundii BS-16; read-out: In Vitro MIC
Description: as §1

Enterobacter cloacae P99 = assay: In vitro MIC, Broth Dilution Method; format: cell-based; settings: P99, read-out: In Vitro MIC
Description: as §1

Proteus mirabilis 2 = assay: In vitro MIC, Broth Dilution Method; format: cell-based
Description: as §1

[10] = tested on: Proteus vulgaris ATCC 6380; assay: In vitro MIC, Broth Dilution Method; format: cell-based; settings: Proteus vulgaris, ATCC6380, read-out: In Vitro MIC
Description: as §1

Pseudomonas aeruginosa B = assay: In vitro MIC, Agar Well Diffusion Method; format: cell-based; settings: read-out: In Vitro MIC
Description: (§2) In vitro antimicrobial activity was determined in BBL seed agar. Serial dilutions of the test compound were pipetted into agar wells (80 μL per well). […] For reference, see A. H. Litton, Antibiotics: Assessment of Antimicrobial Activity and Resistance, Academic Press, New York, pages 19-30 (1983).

Proteus vulgaris 101N = assay: In vitro MIC, Agar Well Diffusion Method; format: cell-based; settings: read-out: In Vitro MIC
Description: as §2

[11] = tested on: Klebsiella pneumoniae 369; assay: In vitro MIC, Agar Well Diffusion Method; format: cell-based
Description: as §2

[12] = tested on: Streptococcus faecium ATCC 8043; assay: In vitro MIC, Agar Well Diffusion Method; format: cell-based; settings: Enterococcus faecium
Description: as §2

Micrococcus luteus PCl = assay: In vitro MIC, Agar Well Diffusion Method; format: cell-based; settings: read-out: In Vitro MIC
Description: as §2

Serratia marcescens SM [13] = assay: In vitro MIC, Agar Well Diffusion Method; format: cell-based; settings: read-out: In Vitro MIC
Description: as §2

Escherichia coli 1269B = assay: In vitro MIC, Agar Well Diffusion Method; format: cell-based; settings: read-out: In Vitro MIC
Description: as §2

[14] = tested on: Enterobacter cloacae 2952B; assay: In vitro MIC, Agar Well Diffusion Method; format: cell-based; settings: read-out: In Vitro MIC
Description: as §2

[15] = tested on: Pseudomonas aeruginosa 56; assay: In vitro MIC, Agar Well Diffusion Method; format: cell-based
Description: as §2

Streptococcus 82 = assay: In vitro MIC, Agar Well Diffusion Method; format: cell-based, Streptococcus aureus
Description: as §2

[16] = ATCC29213, Broth Dilution Method, Staphylococcus aureus ATCC 29213, read-out: In Vitro MIC
[17] = Broth Dilution Method, Staphylococcus aureus Smith
[18] = Broth Dilution Method, Proteus mirabilis 90, read-out: In Vitro MIC
[19] = Broth Dilution Method, Escherichia coli 4, read-out: In Vitro MIC
[20] = Broth Dilution Method, Klebsiella pneumoniae A
[21] = Broth Dilution Method, Serratia marcescens SM
[22] = Broth Dilution Method, Proteus mirabilis 2, read-out: In Vitro MIC
[23] = Agar Well Diffusion Method, Pseudomonas aeruginosa B
[24] = Agar Well Diffusion Method, Proteus vulgaris 101N
[25] = Agar Well Diffusion Method, Klebsiella pneumoniae 369, read-out: In Vitro MIC
[26] = ATCC8043, Agar Well Diffusion Method, Streptococcus faecium ATCC 8043, read-out: In Vitro MIC
[27] = Agar Well Diffusion Method, Micrococcus luteus PCl
[28] = Agar Well Diffusion Method, Serratia marcescens SM
[29] = Agar Well Diffusion Method, Escherichia coli 1269B
[30] = Agar Well Diffusion Method, Enterobacter cloacae 2952B
[31] = Agar Well Diffusion Method, Pseudomonas aeruginosa 56, read-out: In Vitro MIC
[32] = Agar Well Diffusion Method, Streptococcus aureus 82, read-out: In Vitro MIC
[33] = Enterobacter cloacae, 5699, read-out: In Vitro MIC
[34] = Proteus mirabilis, 2, read-out: In Vitro MIC

| Structure (SMILES) | MIC [1, 16] | MIC [5] | MIC [6] | MIC (Klebsiella pneumoniae A; [20]) | MIC (Serratia marcescens SM [7]; [21]) | MIC (Escherichia coli TEM-1) | MIC [9] | MIC (Enterobacter cloacae P99) | MIC [10] | MIC (Pseudomonas aeruginosa B; [23]) | MIC (Proteus vulgaris 101N; [24]) | MIC [11, 25] | MIC [12, 26] | MIC (Micrococcus luteus PCl; [27]) | MIC (Serratia marcescens SM [13]; [28]) | MIC (Escherichia coli 1269B; [29]) | MIC [14, 30] | MIC [15, 31] | MIC (Streptococcus 82; [32]) | MIC [8, 33] | other results |
| --- | --- | --- | --- | --- | --- | --- | --- | --- | --- | --- | --- | --- | --- | --- | --- | --- | --- | --- | --- | --- | --- |
| CCn1cc(C(=O)OC)c(=O)c2cc(F)c(N3CCN(C=N[C@@H]4C(=O)N5[C@@H]4SC(C)(C)[C@@H]5C(=O)O)CC3)cc21 [Compound A] | 16 µg/mL (≈ 28.6 µM) | > 128 µg/mL | 32 µg/mL (≈ 57.2 µM) | 16 µg/mL (≈ 28.6 µM) | 16 µg/mL (≈ 28.6 µM) | 4 µg/mL (≈ 7.15 µM) | 32 µg/mL (≈ 57.2 µM) | 8 µg/mL (≈ 14.3 µM) | 4 µg/mL (≈ 7.15 µM) | 250 µg/mL (≈ 447 µM) | 62.5 µg/mL (≈ 112 µM) | 125 µg/mL (≈ 223 µM) | 250 µg/mL (≈ 447 µM) | 31.3 µg/mL (≈ 55.9 µM) | 250 µg/mL (≈ 447 µM) | 62.5 µg/mL (≈ 112 µM) | 62.5 µg/mL (≈ 112 µM) | 500 µg/mL (≈ 893 µM) | 7.8 µg/mL (≈ 13.9 µM) | – | MIC [2, 17]: 2 µg/mL (≈ 3.57 µM); MIC ([3]; STONE130, Broth Dilution Method, Pseudomonas aeruginosa Stone 130, read-out: In Vitro MIC): 64 µg/mL (≈ 114 µM); MIC ([4]; Streptococcus pneumoniae, 6301, read-out: In Vitro MIC): 1 µg/mL (≈ 1.79 µM); MIC (Proteus mirabilis 90; [18]): 32 µg/mL (≈ 57.2 µM); MIC (Escherichia coli 4; [19]): 8 µg/mL (≈ 14.3 µM); MIC ([8]; Broth Dilution Method, Enterobacter cloacae 5699, read-out: In Vitro MIC): 8 µg/mL (≈ 14.3 µM); MIC (Proteus mirabilis 2; [22]): 8 µg/mL (≈ 14.3 µM) |
| CCn1cc(C(=O)O)c(=O)c2cc(F)c(N3CCN(C=N[C@@H]4C(=O)N5[C@@H]4SC(C)(C)[C@@H]5C(=O)O)CC3)cc21 [Compound B, [2S-(2α,5α,6β)]-7-[4-[[[2-(Carboxy)-3,3-dimethyl-7-oxo-4-thia-1-azabicyclo[3.2.0]hept-6-yl]imino]methyl]-1-piperazinyl]-1-ethyl-6-fluoro-1,4-dihydro-4-oxo-3-quinolinecarboxylic acid monosodium salt] | – | 8 µg/mL | 2 µg/mL | 0.125 µg/mL | 0.125 µg/mL | 0.031 µg/mL | 0.25 µg/mL | 0.063 µg/mL | 0.063 µg/mL | 7.8 µg/mL | 1.95 µg/mL | 3.9 µg/mL | 62.5 µg/mL | 31.3 µg/mL | 62.5 µg/mL | 0.98 µg/mL | 15.6 µg/mL | 7.8 µg/mL | 7.8 µg/mL | 0.063 µg/mL | MIC [2, 17]: 0.25 µg/mL; MIC (Proteus mirabilis 2; [22]): 0.125 µg/mL |
| CCn1cc(C(=O)O)c(=O)c2cc(F)c(N3CCN(C=N[C@@H]4C(=O)N5C(C(=O)O)=C(C)CS[C@H]45)CC3)cc21 [Compound C, 6R-[6α,7β(E(]]-7-[4-[[(2-Carboxy-3-methyl-8-oxo-5-thia-1-azabicyclo[4.2.0]oct-2-en-7-yl)imino]-methyl]-1-piperazinyl]-1-ethyl-6-fluoro-1,4-dihydro-4-oxo-3-quinolinecarboxylic acid disodium salt] | 1 µg/mL | 2 µg/mL | 8 µg/mL | 0.125 µg/mL | 0.125 µg/mL | 0.063 µg/mL | 0.25 µg/mL | 0.125 µg/mL | 0.063 µg/mL | 3.9 µg/mL | 0.98 µg/mL | 3.9 µg/mL | 500 µg/mL | 250 µg/mL | 3.9 µg/mL | 3.9 µg/mL | 7.8 µg/mL | 3.9 µg/mL | 15.6 µg/mL | 0.063 µg/mL | MIC ([4]; Broth Dilution Method, Streptococcus pneumoniae 6301, read-out: In Vitro MIC): 8 µg/mL; MIC (Proteus mirabilis 90; [18]): 0.25 µg/mL; MIC (Escherichia coli 4; [19]): 0.125 µg/mL; MIC (Proteus mirabilis 2; [34]): 0.063 µg/mL |
| CCn1cc(C(=O)[O-])c(=O)c2cc(F)c(N3CCN(C=N[C@H]4CN(S(=O)(=O)[O-])C4=O)CC3)cc21.[Na+].[Na+] [Compound E, (S)-1-Ethyl-6-fluoro-1,4-dihydro-4-oxo-7-[4-[[(1-sulfo-2-oxo-3-azetidinyl)imino]methyl]-1-piperazinyl]-3-quinolinecarboxylic acid disodium salt] | – | – | – | – | – | 0.063 µg/mL | – | 0.063 µg/mL | 0.031 µg/mL | – | – | – | – | – | – | – | – | – | – | 0.125 µg/mL | MIC ([1]; Staphylococcus aureus, ATCC29213, read-out: In Vitro MIC): 2 µg/mL; MIC ([2]; Staphylococcus aureus): 0.5 µg/mL; MIC ([3]; Pseudomonas aeruginosa, STONE130, read-out: In Vitro MIC): 1 µg/mL; MIC (Proteus mirabilis 90; Proteus mirabilis, 90, read-out: In Vitro MIC): 0.063 µg/mL; MIC (Escherichia coli 4; Escherichia coli, 4, read-out: In Vitro MIC): 0.125 µg/mL; MIC (Klebsiella pneumoniae A; Klebsiella pneumoniae): 0.125 µg/mL; MIC (Serratia marcescens SM [7]; Serratia marcescens): 0.063 µg/mL; MIC (Proteus mirabilis 2; [34]): 0.063 µg/mL; MIC (Pseudomonas aeruginosa B; Pseudomonas aeruginosa): 3.9 µg/mL; MIC (Proteus vulgaris 101N; Proteus vulgaris, 101N): 1.95 µg/mL; MIC ([11]; Klebsiella pneumoniae, 369, read-out: In Vitro MIC): 3.9 µg/mL; MIC ([12]; ATCC8043, read-out: In Vitro MIC): > 125 µg/mL; MIC (Micrococcus luteus PCl; Micrococcus luteus): > 125 µg/mL; MIC (Serratia marcescens SM [13]; Serratia marcescens): 3.9 µg/mL; MIC (Escherichia coli 1269B; Escherichia coli, 1269B): 7.8 µg/mL; MIC ([14]; Enterobacter cloacae, 2952B): 31.3 µg/mL; MIC ([15]; Pseudomonas aeruginosa, 56, read-out: In Vitro MIC): 7.8 µg/mL; MIC (Streptococcus 82; Streptococcus, 82, read-out: In Vitro MIC): 15.6 µg/mL |
